Where “and” joins values, the source holds several entries; their conditions need not be identical. Identical values can stand only once. Entries after “also recorded” stand apart in the source; their conditions may differ. Like-named read-outs stand apart in the source and are kept apart here.
Columns and labels:
[1] = Plasma concentrations before the fifth dose in 4NQO-treated rats; type: in vivo, rat
[2] = Stability of OXP in solutions; type: physicochemical
Source text: These chloride derivatives of OXP are not detectable by current available assays.

[3] = system: Dysplastic oral keratinocyte (DOK) cells; assay: MTT growth inhibition (IC50) in DOK cells; type: cell-based; details: MTT assay; for IC50: read-out: IC50 concentration
Source text: • 1. Animal care and treatment. […] Combination index (CI) and isoborogram. […] Pharmaceutical formulation. […] LC-MS/MS.

[4] = In vivo active ingredient release: tongue tissue and plasma amounts in healthy rats; parameters: species or system rat
Method: The instant example analyzes exemplary pharmaceutical formulations applied to the tongue of healthy rats for different time periods up to 4 hours. Concentrations of mycophenolic acid and oxaliplatin in tongue tissues were measured at the corresponding times and up to 12 hours from the beginning of the formulation application in rats. The following are groups of rats that were studied: • Group #1: Formulation applied for 0.5 hour and rat tongues were harvested for drug analysis. N=8 rats. • Group #2: Formulation applied for 1 hour and rat tongues were harvested for drug analysis. N=13 rats. • Group #3: Formulation applied for 2 hours and rat tongues were harvested for drug analysis. N=13 rats. • Group #4: Formulation applied for 3 hours and rat tongues were harvested for drug analysis. N=12 rats. • Group #5: Formulation applied for 4 hours and rat tongues were harvested for drug analysis. N=6 rats. • Group #6: Formulation applied for 4 hours and removed from the rat. At 8 hours after the start of the Formulation application, rat tongues were harvested for drug analysis. N=7 rats. • Group #7: Formulation applied for 4 hours and removed from the rat. At 12 hours after the start of the Formulation application, rat tongues were harvested for drug analysis. N=9 rats.
• 1. Animal care and treatment. […] Combination index (CI) and isoborogram. […] Pharmaceutical formulation.

Structure (SMILES): O=C1[O][Pt]2([NH][C@@H]3CCCC[C@H]3[NH]2)[O]C1=O (relative stereo) [OXP, [SP-4-2-(1R-trans)]-(1,2-cyclohexanediamine-N,N′)[ethanedioato(2-)-O,O′]platinum]
- Plasma concentration of oxaliplatin immediately before the fifth dose application ([1]; 4NQO induced rats, daily 2-hours supra-lingual formulation (9,040 ng MPS, 680 ng OXP)): not detectible
- Plasma concentration of oxaliplatin immediately before the fifth dose application ([1]; 4NQO induced rats, daily 2-hours supra-lingual formulation (9,040 ng MPS, 680 ng OXP), listed as oxaliplatin): No detectable levels; also recorded: Not detectible (ND)
- stability of OXP in chloride-containing solutions ([2]; NaCl (0.9%, 3%), KCl (3%)): converted by chloride in a time and concentration-dependent manner
- stability of OXP in NaPi, glucose, or H2O solutions and solutions containing the bioadhesive material components ([2]; NaPi 0.2M, glucose 5%, H2O, PAA, DOPA, CMC): remains stable
- IC50 [3]: 1670 nM
- oxaliplatin in rat tongue as % of the formulation active ingredient load ([4]; 0.5-hour formulation application group): about 21%
- oxaliplatin in plasma ([4]; any groups): no detectable oxaliplatin in plasma

Structure (SMILES): O=c1[nH]cc(F)c(=O)[nH]1 [5-FU]
- IC50 concentration [3]: 3.33 µg/mL

Structure (SMILES): COc1c(C)c2c(c(O)c1C/C=C(\C)CCC(=O)O)C(=O)OC2 [MPA]
- IC50 ([3]; Keratinocyte): 13300 nM

Structure (SMILES): COc1c(C)c2c(c(O)c1C/C=C(\C)CCC(=O)O)C(=O)OC2 [MPS, mycophenolate]
- Plasma concentration of mycophenolate immediately before the fifth dose application ([1]; 4NQO induced rats, daily 2-hours supra-lingual formulation (9,040 ng MPS, 680 ng OXP), individual rats, steady-state trough): 8.24 ng/mL and 6.84 ng/mL and 3.83 ng/mL and 2.54 ng/mL and 4.82 ng/mL and 2.37 ng/mL and 5.18 ng/mL
- plasma concentration of MPS right before the placement of the last (fifth) formulation, group value ([1]; group treated with OXP-MPS formulations, 2 hours × 5 days): 4.52 (+2.23) ng/ml
- MPS detected in rat tongue as % of the formulation drug load ([4]; 0.5 hour supra-lingual application): about 55%
- plasma MPS concentrations ([4]; all groups): less than 10 ng/mL
- concentration at 8 h ([4]; male, Sprague-Dawley, rat, plasma, healthy rats, applied 4 hours, sampled 4 hours after removal (8 hours from beginning), mean ± SD): 6.5 ± 1.3 ng/mL
- concentration at 12 h ([4]; male, Sprague-Dawley, rat, plasma, healthy rats, applied 4 hours, sampled 8 hours after removal (12 hours from beginning), mean ± SD): 4.26 ± 0.71 ng/mL
- concentration at 1 h ([4]; male, Sprague-Dawley, rat, plasma, healthy rats, supra-lingual formulation, 1 hour of application, mean ± SD): 0.96 ± 0.26 ng/mL
- concentration at 2 h ([4]; male, Sprague-Dawley, rat, plasma, healthy rats, supra-lingual formulation, 2 hours of application, mean ± SD): 2.09 ± 0.76 ng/mL
- concentration at 3 h ([4]; male, Sprague-Dawley, rat, plasma, healthy rats, supra-lingual formulation, 3 hours of application, mean ± SD): 2.76 ± 0.68 ng/mL
- concentration at 4 h ([4]; male, Sprague-Dawley, rat, plasma, healthy rats, supra-lingual formulation, 4 hours of application, mean ± SD): 1.76 ± 0.53 ng/mL

Structure (SMILES): CC(=O)O[C@H]1C(=O)[C@@]2(C)[C@H]([C@H](OC(=O)c3ccccc3)[C@]3(O)C[C@H](OC(=O)[C@H](O)[C@@H](NC(=O)c4ccccc4)c4ccccc4)C(C)=C1C3(C)C)[C@]1(OC(C)=O)CO[C@@H]1C[C@@H]2O [paclitaxel]
- IC50 ([3]; Keratinocyte): 0.41 nM

From US20240261218A1, “BIODEGRADABLE MUCOADHESIVE PHARMACEUTICAL FORMULATIONS AND METHODS THEREOF” (THE TEXAS A&M UNIVERSITY SYSTEM, priority 2021, published 2024)
